These results are taken from ChEMBL document CHEMBL4706703, “Novel 3-benzylidene/benzylphthalide Mannich base derivatives as potential multifunctional agents for the treatment of Alzheimer's disease” (Bioorg Med Chem, 2021).

In data set [1] the target is T1, Acetylcholinesterase (Electrophorus electricus, UniProt O42275). The data set can be described thus: Inhibition of Electrophorus electricus AChE using acetylthiocholine iodide as substrate incubated for 15 mins by Ellman's method. (In Ellman's method for cholinesterases, released thiocholine reacts with DTNB.)
T1 sequence (O42275 whole entry): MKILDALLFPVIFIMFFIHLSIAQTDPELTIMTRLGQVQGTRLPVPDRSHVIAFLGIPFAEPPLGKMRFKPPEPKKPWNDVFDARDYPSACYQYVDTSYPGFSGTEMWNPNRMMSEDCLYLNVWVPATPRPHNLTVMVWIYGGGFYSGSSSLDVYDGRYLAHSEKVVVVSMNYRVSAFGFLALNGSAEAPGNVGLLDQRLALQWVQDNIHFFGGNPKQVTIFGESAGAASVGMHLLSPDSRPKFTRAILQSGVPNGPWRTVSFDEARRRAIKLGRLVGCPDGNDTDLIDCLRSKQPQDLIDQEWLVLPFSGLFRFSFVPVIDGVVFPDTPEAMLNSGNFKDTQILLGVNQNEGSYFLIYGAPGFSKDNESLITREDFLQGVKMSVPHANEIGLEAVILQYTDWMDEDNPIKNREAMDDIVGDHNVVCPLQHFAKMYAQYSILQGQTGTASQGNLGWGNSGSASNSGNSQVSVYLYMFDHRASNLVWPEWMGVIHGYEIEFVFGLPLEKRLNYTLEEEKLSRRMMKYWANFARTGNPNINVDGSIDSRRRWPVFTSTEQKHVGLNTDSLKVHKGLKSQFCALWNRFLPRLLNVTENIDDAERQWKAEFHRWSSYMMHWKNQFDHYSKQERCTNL
Data set [2] deals with Acetylcholinesterase (Homo sapiens, UniProt P22303). The data set can be described thus: Inhibition of human AChE using acetylthiocholine iodide as substrate incubated for 15 mins by Ellman's method.
Sequence of Acetylcholinesterase (Homo sapiens, UniProt P22303) (P22303 whole entry): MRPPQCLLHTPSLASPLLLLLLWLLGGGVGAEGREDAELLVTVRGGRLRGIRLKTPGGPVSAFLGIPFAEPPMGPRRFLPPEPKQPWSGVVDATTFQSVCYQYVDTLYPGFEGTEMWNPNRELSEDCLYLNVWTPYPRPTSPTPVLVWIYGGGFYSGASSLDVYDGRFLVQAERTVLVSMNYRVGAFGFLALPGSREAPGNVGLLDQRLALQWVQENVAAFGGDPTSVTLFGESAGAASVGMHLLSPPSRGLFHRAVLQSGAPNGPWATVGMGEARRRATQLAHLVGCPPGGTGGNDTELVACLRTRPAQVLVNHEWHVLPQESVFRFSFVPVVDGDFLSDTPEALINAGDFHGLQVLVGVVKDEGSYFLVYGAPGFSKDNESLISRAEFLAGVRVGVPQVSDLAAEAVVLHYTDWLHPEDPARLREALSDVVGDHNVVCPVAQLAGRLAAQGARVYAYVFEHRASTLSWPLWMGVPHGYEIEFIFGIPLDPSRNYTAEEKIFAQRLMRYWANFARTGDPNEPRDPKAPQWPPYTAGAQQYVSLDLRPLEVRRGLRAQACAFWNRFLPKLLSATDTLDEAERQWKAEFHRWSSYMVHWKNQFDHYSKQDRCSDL
In data set [3] the target is butyrylcholinesterase (BuChE) (Rattus norvegicus, UniProt Q9JKC1). The data set can be described thus: Inhibition of rat serum BuChE at 10 uM using butyrylthiocholine iodide as substrate incubated for 15 mins by Ellman's method relative to control. To be noted: probe butyrylthiocholine iodide. Type of data set: cell-free.
Sequence of butyrylcholinesterase (BuChE) (Q9JKC1 whole entry): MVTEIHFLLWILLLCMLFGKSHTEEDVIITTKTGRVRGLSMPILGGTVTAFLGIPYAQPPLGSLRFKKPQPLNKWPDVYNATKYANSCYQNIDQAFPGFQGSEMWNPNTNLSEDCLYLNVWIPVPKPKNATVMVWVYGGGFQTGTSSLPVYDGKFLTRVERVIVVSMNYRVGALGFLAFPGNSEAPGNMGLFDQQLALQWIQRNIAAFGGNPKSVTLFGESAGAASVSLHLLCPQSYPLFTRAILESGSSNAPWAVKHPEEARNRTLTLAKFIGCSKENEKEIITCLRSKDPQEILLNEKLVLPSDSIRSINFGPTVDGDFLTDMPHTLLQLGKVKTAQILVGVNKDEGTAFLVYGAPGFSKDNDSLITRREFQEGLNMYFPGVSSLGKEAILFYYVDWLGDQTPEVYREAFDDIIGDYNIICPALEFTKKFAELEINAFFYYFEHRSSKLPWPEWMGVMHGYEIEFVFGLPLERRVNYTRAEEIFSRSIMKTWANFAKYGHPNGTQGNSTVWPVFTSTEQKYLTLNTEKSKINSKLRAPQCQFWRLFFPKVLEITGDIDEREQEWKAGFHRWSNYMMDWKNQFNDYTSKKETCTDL
Data set [4] addresses T1, Acetylcholinesterase. Put plainly: Competitive inhibition of Electrophorus electricus AChE using varying levels of acetylthiocholine iodide as substrate preincubated for 15 mins followed by substrate addition and measured for 15 mins by Ellman's method based Lineweaver-Burk plot analysis.
Data set [5] has as its target T2, Amine oxidase [flavin-containing] B (Homo sapiens, UniProt P27338).
T2 sequence (P27338 whole entry): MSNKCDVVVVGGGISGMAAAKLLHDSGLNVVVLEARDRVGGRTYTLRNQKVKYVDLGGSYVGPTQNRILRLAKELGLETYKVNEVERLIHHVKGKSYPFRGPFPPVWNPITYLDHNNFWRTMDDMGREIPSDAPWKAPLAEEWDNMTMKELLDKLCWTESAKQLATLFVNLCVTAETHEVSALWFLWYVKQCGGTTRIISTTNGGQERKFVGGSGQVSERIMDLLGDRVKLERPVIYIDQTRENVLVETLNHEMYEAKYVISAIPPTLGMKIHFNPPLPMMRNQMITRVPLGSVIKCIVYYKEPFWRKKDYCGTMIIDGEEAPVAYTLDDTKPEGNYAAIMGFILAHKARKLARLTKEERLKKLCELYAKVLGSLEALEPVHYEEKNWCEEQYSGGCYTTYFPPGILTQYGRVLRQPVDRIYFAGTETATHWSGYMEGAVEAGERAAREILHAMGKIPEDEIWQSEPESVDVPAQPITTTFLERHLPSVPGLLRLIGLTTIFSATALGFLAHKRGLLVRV
The data set can be described thus: Inhibition of recombinant human MAOB using kynuramine as substrate preincubated for 30 mins followed by substrate addition and measured after 30 mins by fluorescence assay.

In another data set the target is T3, MAO-A (Homo sapiens, UniProt P21397).
T3 sequence (P21397 whole entry): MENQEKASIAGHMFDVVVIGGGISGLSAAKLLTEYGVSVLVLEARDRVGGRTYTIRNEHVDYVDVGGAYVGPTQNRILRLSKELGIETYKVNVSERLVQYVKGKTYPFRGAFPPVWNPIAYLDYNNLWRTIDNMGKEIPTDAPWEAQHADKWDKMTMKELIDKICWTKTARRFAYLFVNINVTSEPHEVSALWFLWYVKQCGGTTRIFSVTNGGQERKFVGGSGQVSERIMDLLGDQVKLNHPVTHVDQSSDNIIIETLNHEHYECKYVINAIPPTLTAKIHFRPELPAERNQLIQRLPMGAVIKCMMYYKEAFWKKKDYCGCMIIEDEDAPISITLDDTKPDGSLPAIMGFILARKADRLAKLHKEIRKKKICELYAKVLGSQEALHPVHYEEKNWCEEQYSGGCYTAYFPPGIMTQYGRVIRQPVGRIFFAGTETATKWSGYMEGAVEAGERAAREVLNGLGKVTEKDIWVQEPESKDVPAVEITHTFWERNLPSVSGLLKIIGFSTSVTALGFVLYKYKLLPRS
Put plainly: Inhibition of recombinant human MAOA at 10 uM using kynuramine as substrate preincubated for 30 mins followed by substrate addition and measured after 30 mins by fluorescence assay relative to control. To be noted: probe kynuramine, time 60 min.

Data set [6] is described as follows: Antioxidant activity assessed as trolox equivalent of AAPH radical scavenging activity measured every min for 90 mins by ORAC-FL assay. Type of data set: functional.
For data set [7], the target named is Amyloid-beta precursor protein (Homo sapiens) (UniProt P05067). The data set can be described thus: Inhibition of amyloid beta (1 to 42) (unknown origin) self aggregation at 25 uM after 24 hrs by thioflavin-T fluorescence method relative to control.
Sequence of Amyloid-beta precursor protein (Homo sapiens) (P05067 whole entry, the tested form may be a part): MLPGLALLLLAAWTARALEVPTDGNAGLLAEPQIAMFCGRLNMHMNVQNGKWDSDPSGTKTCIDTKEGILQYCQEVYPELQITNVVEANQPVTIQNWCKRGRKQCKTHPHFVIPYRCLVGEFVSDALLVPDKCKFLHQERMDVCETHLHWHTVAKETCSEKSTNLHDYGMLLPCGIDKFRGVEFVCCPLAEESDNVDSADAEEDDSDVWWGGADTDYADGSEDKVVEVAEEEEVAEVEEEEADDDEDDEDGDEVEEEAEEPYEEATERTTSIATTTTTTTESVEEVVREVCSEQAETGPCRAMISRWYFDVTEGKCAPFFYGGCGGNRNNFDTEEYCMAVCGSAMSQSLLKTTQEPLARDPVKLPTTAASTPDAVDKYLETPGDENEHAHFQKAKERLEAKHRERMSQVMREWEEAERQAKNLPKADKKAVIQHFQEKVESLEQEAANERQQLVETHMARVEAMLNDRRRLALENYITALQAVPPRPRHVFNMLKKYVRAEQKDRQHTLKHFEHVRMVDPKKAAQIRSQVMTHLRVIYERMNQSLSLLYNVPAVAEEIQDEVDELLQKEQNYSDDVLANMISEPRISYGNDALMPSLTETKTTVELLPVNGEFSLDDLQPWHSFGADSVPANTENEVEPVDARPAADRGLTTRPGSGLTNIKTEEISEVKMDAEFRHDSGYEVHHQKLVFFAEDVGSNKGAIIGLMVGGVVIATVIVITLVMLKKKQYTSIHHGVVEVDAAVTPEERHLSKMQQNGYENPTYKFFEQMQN
The nature of data set [8]: Inhibition of Cu2+-induced amyloid beta (1 to 42 residues) aggregation at 25 uM after 24 hrs by thioflavin T-based fluorescence assay relative to control.
Data set [9] has as its target Amyloid-beta precursor protein (Homo sapiens) (UniProt P05067). Put plainly: Disaggregation of self-induced amyloid beta (1 to 42) (unknown origin) preformed fibrils at 25 uM measured after 24 hrs by thioflavin-T fluorescence assay relative to control.
The next data set deals with Plasma. The data set can be described thus: Antiplatelet activity in rat platelet-rich plasma assessed as inhibition of ADP-induced platelet aggregation at 33 uM preincubated for 30 mins followed by ADP addition measured within 5 mins by aggregometry relative to control. The format is functional. To be noted: time 30-35 min.
The nature of data set [10]: Metal chelating activity assessed as compound-Cu2+ complex formation by measuring induction of red shift at 37.5 uM measured after 2 hrs by UV-visible spectrometric method.
The nature of data set [11]: Metal chelating activity assessed as compound-Fe2+ complex formation by measuring induction of red shift at 37.5 uM measured after 2 hrs by UV-visible spectrometric method.
Data set [12] can be described thus: Metal chelating activity assessed as compound-Zn2+ complex formation by measuring induction of red shift at 37.5 uM measured after 2 hrs by UV-visible spectrometric method.
Data set [13] can be described thus: Metal chelating activity assessed as compound-Al3+ complex formation by measuring induction of blue shift at 37.5 uM measured after 2 hrs by UV-visible spectrometric method.
Data set [14] in a line: Metal chelating activity assessed as mole fraction required to show 1:1 stoichiometry for compound-Cu2+ complex formation measured after 30 mins.
Data set [15] can be described thus: Permeability of the compound in pH 7.4 PBS/EtOH at 100 ug/ml after 18 hrs by PAMPA-BBB assay. To be noted: dose 100 µg/ml, read-out: permeability. The format is ADME. (In general: In PAMPA a lipid-coated filter parts donor from acceptor wells.)
Data set [16] concerns PC-12. The data set can be described thus: Cytotoxicity against rat PC-12 cells assessed as effect on cell viability up to 50 uM measured after 2 hrs by MTT assay. The format is cell-based. To be noted: pc-12, 2 h. For orientation: Formazan colour is commonly taken as a measure of viable cells.
The nature of data set [17]: Cytotoxicity against rat PC-12 cells assessed as cell viability at 100 uM measured after 2 hrs by MTT assay relative to control. Type of data set: cell-based. To be noted: read-out: Activity.
Data set [18] deals with PC-12. Put plainly: Neuroprotective activity against H2O2-induced cytotoxicity in rat PC12 cells assessed as cell viability at 50 uM preincubated for 2 hrs followed by H2O2 addition and measured after 24 hrs by MTT assay (reference value: 53.1%). Type of data set: cell-based. To be noted: PC-12, 24 h, time 26 hrs, read-out: Activity.
In data set [19] the test system is PC-12. The data set can be described thus: Neuroprotective activity against H2O2-induced cytotoxicity in rat PC12 cells assessed as increase in cell viability preincubated for 2 hrs followed by H2O2 addition and measured after 24 hrs by MTT assay. To be noted: dose 1-50 µM, time 26.0 hrs. Type of data set: functional, cell-based.
Data set [20] has as its system Mus musculus. The data set can be described thus: Memory improvement effect in ig dosed Kunming mouse model of scopolamine-induced memory impairment assessed as increase in latency time administered once daily for 7 days followed by scopolamine challenge 30 mins prior to training on day 6 measured on day 7 by passive avoidance test. The format is functional, organism-based. To be noted: dose 0.19-4.75 mg/kg, time 7.0 day.

For data set [21], the system named is Mus musculus. Put plainly: Memory improvement effect in ig dosed Kunming mouse model of scopolamine-induced memory impairment assessed as reduction in number of errors administered once daily for 7 days followed by scopolamine challenge 30 mins prior to training on day 6 measured on day 7 by passive avoidance test. The format is functional, organism-based. To be noted: dose 0.19-4.75 mg/kg, time 7.0 day.

Data set [22] relates to Mus musculus. Put plainly: Reversal of scopolamine-induced memory impairment in ig dosed Kunming mouse assessed as increase in ACh level in cerebral cortex administered once daily for 7 days followed by scopolamine challenge 30 mins prior to training trail on day 6 measured on day 7. The format is functional, organism-based. To be noted: dose 0.19-4.75 mg/kg, time 7.0 day.

Active and inactive are the calls of the source. No cut-off for these calls is given here.

The term IC50 denotes the midpoint of a concentration-inhibition curve. For orientation: inhibition means the share of the control response that was lost under treatment. One may read the Ki as the equilibrium dissociation constant of an inhibitor or competing ligand from its target. Lower therefore signals tighter binding. On to `COc1cc2c(cc1OC)/C(=C/c1ccc(O)c(N3CCCCC3)c1)OC2=O`, for which the IC50 on Acetylcholinesterase [1] turned out to be 0.0918 nM; against Acetylcholinesterase [2], 0.616 nM; in [5], 5880 nM. Besides, the inhibition at […], 10 µM in data set [3] was 22.4%. This compound also showed an inhibition constant (Ki) at Acetylcholinesterase [4] of 0.082 nM. Besides, at MAO-A, the inhibition at 0.5 h, 10 µM is below 5%. Moreover, the Activity in [6] was 2.05 equiv; in data set [9] it was 11.8%; in the data set with PC-12 [16], “Non-Toxic”; with PC-12 [19], “Dose-dependent effect”; with Mus musculus [20] it was “Dose-dependent effect”; in the data set with Mus musculus [21], “Dose-dependent effect”. Besides, in the data set with Mus musculus [22], the Activity result is “Dose-dependent effect”. Besides, the inhibition in [7] is 34.2%; in data set [8], 19.9%. Besides, the inhibition at 33 µM in the data set on Plasma came out at 32.5%. The result in [10], in data set [11], in data set [12] and in data set [13] was Active. The Activity (mole fraction) in [14] amounted to 0.88. Besides, the Papp at 18 h, 100 ug/ml in [15] came to 12.3 ×10⁻⁶ cm/s. For the same compound, in data set [17], the viability at 2 h, 100 µM is 81.2%. Also, the viability at 50 µM with PC-12 [18] amounted to 79%.
